# Measurements as given in patent US20130190275A1, “COMBINED THERAPIES OF ANTIPSYCHOTIC DRUGS AND TETRACYCLINES IN THE TREATMENT OF PSYCHIATRIC DISORDERS” (MOR RESEARCH APPLICATIONS LTD., priority 2006, published 2013).
# Key:
# MK801 treated rats = test: Pre-Pulse Inhibition (PPI) paradigm, MK801 animal model; format: in vivo, rat
# Method: Acoustic Startle Response (ASR) and Pre-Pulse Inhibition (PPI): Both experimental paradigms were performed in a room that was adjacent to the laboratory facilities and the animal stall and that was not used for other experiments. The animals were tested in squad of two with startle chambers counterbalanced across the different experimental groups. Startle response and prepulse inhibition were measured using two ventilated startle chambers (SR-LAB system, San Diego Instruments, San Diego, Calif.). Each chamber consisted of a Plexiglas cylinder resting on a platform inside a sound-attenuated, ventilated chamber. A high-frequency loudspeaker inside the chamber produced both a continuous broadband background noise of 70 dB and the various acoustic stimuli. Movement inside the tube was detected by a piezoelectric accelerometer below the frame. The amplitude of the whole body startle to an acoustic pulse was defined as the average of 100 one-msec accelerometer readings collected from pulse onset. These signals were then digitized and stored by a computer. Sound levels within each test chamber were measured routinely using a sound level meter (Radio Shack) to ensure consistent presentation. The SR-LAB calibration unit was used routinely to ensure consistent stabilimeter sensitivity between test chambers and over time (Swerdlow and Geyer, 1998, Schizophrenia Bulletin, 24(2), 285-301).
# Fifteen minutes before the behavioral procedures conducted at the fourth day, the subject was injected i.p. with an 0.1 mg/kg dose of MK801 or saline, for a total volume of 1 ml per kg of body weight. Next, the subjects passed the three behavioral procedures, described in the following paragraphs.
# ASR and PPI were measured using two startle chambers, with each chamber consisting of a Plexiglas cylinder resting on a platform inside a sound-attenuated, ventilated chamber (see also materials section). The animals were tested in pairs with startle chambers counterbalanced across the different experimental groups.
# PPI of the startle response was used as a measure of sensorimotor gating, with the startle chambers used to assess the ability of prepulse stimuli to block the startle response. […]
# Pre-Pulse Inhibition (PPI): Startle magnitude is expressed in all the procedures as arbitrary units. Percent PPI (% PPI) was calculated as the mean startle magnitude to stimulus-alone minus the mean startle magnitude to prepulse-stimulus trials, all divided by the mean stimulus-alone trials, and multiplied by 100. The overall mean % PPI was calculated for the four prepulse intensities (72, […], 80, 84 dB). Results were analyzed by two-way ANOVA with a between-subject measure of ‘group’ (difference the treatment groups) and ‘prepulse intensity’ (72, 76, 80, 84 dB).
# [1] = system: patients who experience first psychotic episode; test: CANTAB Stockings of Cambridge (SOC), adjuvant study; format: in vivo, human; details: atypical antipsychotic drug+minocycline 200 mg/day vs +placebo; p=0.001
# Method: The study was carried out in patients who experience first psychotic episode, and has followed the patient for a total duration of 6 months. As the study examines Minocycline as an adjuvant drug, the sample includes patients receiving one of the following atypical anti-psychotic drugs: Risperdal, Zyprexa, Geodon, Seroquel, and Leponex. […] In addition, the subjects were assessed by a battery of computerized neuropsychological tests (CANTAB—Cambridge Neuropsychological Test Automated Battery), measuring attention, memory, and planning. Executive function was tested by two tasks of the CANTAB: planning was tested by a computerized modification of the Tower of London, and working memory by a spatial working memory task. Minocycline was given as an add-on therapy. […] Clinical status was evaluated by the aforementioned scales at the onset of the study, every week for the first 6 weeks, and then once a month for the rest of the study period. Cognitive capabilities were assessed by the neuropsychological battery of tests according to the following schedule: upon initiation of the study (referred to as visit 1 in FIGS. 5-8), 3 months (referred to as visit 2 in FIGS. 5-8), and 6 months (referred to as visit 3 in FIGS. 5-8) after the start of the study. […]
# [2] = system: patients who experience first psychotic episode; test: SANS (Scale for the Assessment of Negative Symptoms), adjuvant study; format: in vivo, human; details: atypical antipsychotic drug+minocycline 200 mg/day vs +placebo; group x time p<0.01
# Method: (§1) The study was carried out in patients who experience first psychotic episode, and has followed the patient for a total duration of 6 months. As the study examines Minocycline as an adjuvant drug, the sample includes patients receiving one of the following atypical anti-psychotic drugs: Risperdal, Zyprexa, Geodon, Seroquel, and Leponex. […] Initial evaluation included the following clinical measures: • SCID (for reliability of diagnosis) • CGI (Clinical Global Impression) • PANSS (Positive and Negative Syndrome Scale for Schizophrenia) • SANS (Scale for the Assessment of Negative Symptoms) • Calgary Depression Scale for Schizophrenia • GAF • GRAF • Insight and Treatment Attitudes Questionnaire • QLS (Quality of Life Scale) • Multinomah Community Ability Scale • Extrapyramidal Side Effects Scale. Minocycline was given as an add-on therapy. […] Clinical status was evaluated by the aforementioned scales at the onset of the study, every week for the first 6 weeks, and then once a month for the rest of the study period. Cognitive capabilities were assessed by the neuropsychological battery of tests according to the following schedule: upon initiation of the study (referred to as visit 1 in FIGS. 5-8), 3 months (referred to as visit 2 in FIGS. 5-8), and 6 months (referred to as visit 3 in FIGS. 5-8) after the start of the study. […]
# [3] = system: patients who experience first psychotic episode; test: Calgary Depression Scale for Schizophrenia, adjuvant study; format: in vivo, human; details: atypical antipsychotic drug+minocycline 200 mg/day vs +placebo; p=0.099, n.s.
# Method: as §1
# [4] = system: patients who experience first psychotic episode; test: GRAF score, adjuvant study; format: in vivo, human; details: atypical antipsychotic drug+minocycline 200 mg/day vs +placebo; group x time p<0.05
# Method: as §1
compound,measurement,setting,value
CN(C)c1ccc(O)c2c1C[C@H]1C[C@H]3[C@H](N(C)C)C(O)=C(C(N)=O)C(=O)[C@@]3(O)C(O)=C1C2=O [minocycline],percent of PPI (% PPI),"MK801 treated rats; drug+MK801 0.1 mg/kg i.p., minocycline 35 mg/kg x 3 days pretreatment, haloperidol 0.4 mg/kg i.p.",able to reverse the deficits caused by the MK801 treatment
same,percent of PPI (% PPI),MK801 treated rats; minocycline alone (no MK801) vs saline,no statistically significant differences
same,SOC number of problems solved in minimum moves,[1],improved significantly more than the placebo group
same,total SANS score,[2],greater improvement than the placebo group
same,Total Calgary Score,[3],tended to reach greater improvement
same,GRAF score,[4],greater improvement of the GRAF score
